# Legend:
# Test in all cases: Kinase panel screen
# Format in all cases: biochemical
# Settings in all cases: Compound I and ATP 10 μM
# PAR-1Ba = molecular target: T1, PAR-1Ba (Homo sapiens, UniProt Q7KZI7)
# T1 construct: purchased Upstate USA or Invitrogen (commercial screening service)
# MKK4 = MKK4 (Mus musculus, UniProt P47809)
# CDK2 = molecular target: T2, CDK2 (Homo sapiens, UniProt P24941)
# T2 construct: purchased Upstate USA or Invitrogen (commercial screening service)
# PAK4 = molecular target: T3, PAK4 (Homo sapiens, UniProt O96013)
# T3 construct: purchased Upstate USA or Invitrogen (commercial screening service)
# PKCpiI = molecular target: T4, PKCpiI (Homo sapiens, UniProt P05771)
# T4 construct: purchased Upstate USA or Invitrogen (commercial screening service)
# Pim-1 = molecular target: T5, Pim-1 (Homo sapiens, UniProt P11309)
# T5 construct: purchased Upstate USA or Invitrogen (contract screening service)
# PRK2 = molecular target: T6, PRK2 (Homo sapiens, UniProt Q16513)
# T6 construct: purchased Upstate USA or Invitrogen (contract screening service)
# T6 sequence (Q16513 whole entry): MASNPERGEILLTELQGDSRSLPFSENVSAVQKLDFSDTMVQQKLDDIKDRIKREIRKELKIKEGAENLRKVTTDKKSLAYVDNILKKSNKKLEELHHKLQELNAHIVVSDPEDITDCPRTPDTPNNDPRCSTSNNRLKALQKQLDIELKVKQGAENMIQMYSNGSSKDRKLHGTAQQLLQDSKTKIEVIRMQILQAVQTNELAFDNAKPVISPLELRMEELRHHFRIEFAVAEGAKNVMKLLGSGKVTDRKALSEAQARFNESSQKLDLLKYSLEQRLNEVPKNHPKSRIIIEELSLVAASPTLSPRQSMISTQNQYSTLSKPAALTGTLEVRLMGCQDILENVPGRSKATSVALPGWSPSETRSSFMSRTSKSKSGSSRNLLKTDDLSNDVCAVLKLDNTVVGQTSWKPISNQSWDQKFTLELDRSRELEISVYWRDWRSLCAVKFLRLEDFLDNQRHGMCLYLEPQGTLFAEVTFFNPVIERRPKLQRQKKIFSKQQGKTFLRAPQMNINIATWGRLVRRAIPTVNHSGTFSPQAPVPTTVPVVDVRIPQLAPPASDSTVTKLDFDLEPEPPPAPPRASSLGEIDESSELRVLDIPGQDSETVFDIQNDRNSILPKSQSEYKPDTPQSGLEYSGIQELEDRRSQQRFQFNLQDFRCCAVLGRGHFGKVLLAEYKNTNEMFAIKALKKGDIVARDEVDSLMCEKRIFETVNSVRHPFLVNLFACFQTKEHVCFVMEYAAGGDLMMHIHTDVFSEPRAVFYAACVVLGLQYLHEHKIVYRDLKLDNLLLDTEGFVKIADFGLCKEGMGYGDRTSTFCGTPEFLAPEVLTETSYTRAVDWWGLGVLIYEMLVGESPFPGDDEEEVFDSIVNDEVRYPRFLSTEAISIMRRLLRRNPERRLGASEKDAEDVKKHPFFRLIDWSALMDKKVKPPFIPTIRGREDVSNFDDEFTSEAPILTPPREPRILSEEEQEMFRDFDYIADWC
# T1 sequence (Q7KZI7 1-725 isoform Q7KZI7-4): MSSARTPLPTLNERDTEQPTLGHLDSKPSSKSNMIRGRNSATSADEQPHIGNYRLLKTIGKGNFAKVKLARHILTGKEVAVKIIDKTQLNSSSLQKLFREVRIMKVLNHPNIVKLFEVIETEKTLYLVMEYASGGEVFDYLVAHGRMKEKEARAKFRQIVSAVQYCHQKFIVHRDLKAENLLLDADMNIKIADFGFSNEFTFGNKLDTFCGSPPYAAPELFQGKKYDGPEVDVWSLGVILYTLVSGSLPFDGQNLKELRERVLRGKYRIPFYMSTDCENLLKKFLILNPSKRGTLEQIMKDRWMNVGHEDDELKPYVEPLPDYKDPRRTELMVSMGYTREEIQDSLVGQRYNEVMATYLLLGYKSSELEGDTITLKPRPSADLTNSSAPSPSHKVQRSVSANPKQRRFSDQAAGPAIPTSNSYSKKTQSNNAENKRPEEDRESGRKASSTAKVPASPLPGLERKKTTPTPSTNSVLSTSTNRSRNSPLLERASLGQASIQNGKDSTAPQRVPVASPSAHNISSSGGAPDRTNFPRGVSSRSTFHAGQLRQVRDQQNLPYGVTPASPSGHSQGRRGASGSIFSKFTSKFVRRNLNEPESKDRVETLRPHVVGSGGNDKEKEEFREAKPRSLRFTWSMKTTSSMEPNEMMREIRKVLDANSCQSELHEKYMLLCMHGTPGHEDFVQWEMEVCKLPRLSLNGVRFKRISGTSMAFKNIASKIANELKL
# T3 sequence (O96013 whole entry): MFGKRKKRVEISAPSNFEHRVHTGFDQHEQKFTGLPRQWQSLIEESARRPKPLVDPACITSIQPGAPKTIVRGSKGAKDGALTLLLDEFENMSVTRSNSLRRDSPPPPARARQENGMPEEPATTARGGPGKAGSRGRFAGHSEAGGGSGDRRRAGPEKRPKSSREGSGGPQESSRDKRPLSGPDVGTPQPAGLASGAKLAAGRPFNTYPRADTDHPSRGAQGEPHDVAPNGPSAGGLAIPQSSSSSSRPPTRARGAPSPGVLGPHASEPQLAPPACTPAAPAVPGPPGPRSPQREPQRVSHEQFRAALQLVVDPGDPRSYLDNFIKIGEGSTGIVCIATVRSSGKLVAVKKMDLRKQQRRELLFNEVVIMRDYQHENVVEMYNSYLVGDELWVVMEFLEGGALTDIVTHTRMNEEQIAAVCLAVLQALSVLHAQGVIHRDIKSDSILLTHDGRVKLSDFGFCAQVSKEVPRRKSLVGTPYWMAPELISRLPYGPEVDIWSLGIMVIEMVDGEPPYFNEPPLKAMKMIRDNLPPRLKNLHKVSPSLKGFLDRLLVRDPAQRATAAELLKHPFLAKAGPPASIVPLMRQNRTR
# T4 sequence (P05771 1-673 isoform P05771-2): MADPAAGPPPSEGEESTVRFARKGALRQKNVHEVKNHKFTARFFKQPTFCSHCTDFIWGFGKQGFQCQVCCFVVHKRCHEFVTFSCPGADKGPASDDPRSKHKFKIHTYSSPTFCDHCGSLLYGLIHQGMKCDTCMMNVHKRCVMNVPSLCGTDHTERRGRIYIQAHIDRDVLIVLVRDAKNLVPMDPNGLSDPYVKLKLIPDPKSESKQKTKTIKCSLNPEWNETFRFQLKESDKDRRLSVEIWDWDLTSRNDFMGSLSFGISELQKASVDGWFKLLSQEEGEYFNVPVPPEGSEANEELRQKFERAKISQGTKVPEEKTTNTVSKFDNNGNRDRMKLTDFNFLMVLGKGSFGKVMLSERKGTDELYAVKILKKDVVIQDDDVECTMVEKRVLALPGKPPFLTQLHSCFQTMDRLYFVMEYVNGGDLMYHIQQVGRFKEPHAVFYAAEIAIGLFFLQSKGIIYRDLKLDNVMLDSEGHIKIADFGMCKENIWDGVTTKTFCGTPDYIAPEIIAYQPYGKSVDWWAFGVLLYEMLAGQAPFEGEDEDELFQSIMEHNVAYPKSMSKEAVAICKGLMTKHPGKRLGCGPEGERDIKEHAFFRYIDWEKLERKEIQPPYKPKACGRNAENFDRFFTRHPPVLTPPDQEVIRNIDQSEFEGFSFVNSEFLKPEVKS
# T5 sequence (P11309 whole entry): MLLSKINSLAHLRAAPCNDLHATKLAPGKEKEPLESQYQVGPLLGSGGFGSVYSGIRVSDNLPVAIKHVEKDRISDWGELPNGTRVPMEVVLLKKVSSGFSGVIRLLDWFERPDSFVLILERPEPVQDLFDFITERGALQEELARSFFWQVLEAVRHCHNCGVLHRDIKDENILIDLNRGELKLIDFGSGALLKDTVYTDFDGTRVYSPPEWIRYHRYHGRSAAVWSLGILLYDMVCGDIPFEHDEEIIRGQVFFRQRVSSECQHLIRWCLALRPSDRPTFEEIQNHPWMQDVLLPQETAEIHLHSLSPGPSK
# Sequence of MKK4 (P47809 whole entry): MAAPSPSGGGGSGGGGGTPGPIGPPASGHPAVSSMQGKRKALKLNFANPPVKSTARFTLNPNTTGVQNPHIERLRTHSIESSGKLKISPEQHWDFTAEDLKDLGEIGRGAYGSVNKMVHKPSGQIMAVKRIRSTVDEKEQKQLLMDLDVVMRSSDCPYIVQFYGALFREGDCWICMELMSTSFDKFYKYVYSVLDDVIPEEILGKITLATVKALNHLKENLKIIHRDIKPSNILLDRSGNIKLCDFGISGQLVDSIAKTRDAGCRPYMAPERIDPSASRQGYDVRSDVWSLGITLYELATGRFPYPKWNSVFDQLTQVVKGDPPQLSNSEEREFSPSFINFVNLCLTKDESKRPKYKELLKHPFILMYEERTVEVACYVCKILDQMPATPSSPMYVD
compound,measurement,setting,value
"Nc1nc(N)c2nc(-c3cccc(O)c3)c(-c3cccc(O)c3)nc2n1 [Compound I, 6,7-bis-(3-hydroxyphenyl)-pteridine-2,4-diamine]","Percent Control, PAR-1Ba",PAR-1Ba,93%
same,"Percent Control, MKK4 (m)",MKK4,57%
same,"Percent Control, CDK2 (second entry)",CDK2,77%
same,"Percent Control, PAK4",PAK4,78%
same,"Percent Control, PKCpiI",PKCpiI,80%
same,"Percent Control, Pim-1",Pim-1,70%
same,"Percent Control, PRK2",PRK2,83%
